Data reported in patent US20050197350A1, “Novel quinoline, tetrahydroquinazoline, and pyrimidine derivatives and methods of treatment related to the use thereof” (TAISHO PHARMACEUTICAL CO., LTD., priority 2003, published 2005).

Test system: MCH receptors
Experiment: MCH receptor activity class (method not given)
Conditions: MCH receptor; class by percent of control at 10^-7 M or IC50

Row | Compound | class
1 | CN(C)c1nc(N[C@H]2CC[C@@H](NC(=S)Nc3cccc(Cl)c3)CC2)nc2c1CCCC2 [compound 1933] | 3 (Class 3 The value of percent of control at 10^−7 M was more than 60% or the value of IC50 was more than 200 nM.)
2 | CN(C)c1nc(N[C@H]2CC[C@@H](NC(=S)Nc3ccc(Cl)cc3)CC2)nc2c1CCCC2 [compound 1934] | 3 (Class 3 The value of percent of control at 10^−7 M was more than 60% or the value of IC50 was more than 200 nM.)
3 | CN(C)c1nc(N[C@H]2CC[C@@H](NC(=S)Nc3cc(F)ccc3F)CC2)nc2c1CCCC2 [compound 1935] | 3 (Class 3 The value of percent of control at 10^−7 M was more than 60% or the value of IC50 was more than 200 nM.)
4 | CN(C)c1nc(N[C@H]2CC[C@@H](NC(=S)Nc3cc(Cl)ccc3Cl)CC2)nc2c1CCCC2 [compound 1936] | 3 (Class 3 The value of percent of control at 10^−7 M was more than 60% or the value of IC50 was more than 200 nM.)
5 | CN(C)c1nc(N[C@H]2CC[C@@H](NC(=S)Nc3ccc(Cl)c(Cl)c3)CC2)nc2c1CCCC2 [compound 1937] | 3 (Class 3 The value of percent of control at 10^−7 M was more than 60% or the value of IC50 was more than 200 nM.)
6 | CN(C)c1nc(N[C@H]2CC[C@@H](NC(=S)Nc3c(Cl)cccc3Cl)CC2)nc2c1CCCC2 [compound 1938] | 3 (Class 3 The value of percent of control at 10^−7 M was more than 60% or the value of IC50 was more than 200 nM.)
7 | CCOc1ccc(NC(=S)N[C@H]2CC[C@@H](Nc3nc4c(c(N(C)C)n3)CCCC4)CC2)cc1 [compound 1939] | 3 (Class 3 The value of percent of control at 10^−7 M was more than 60% or the value of IC50 was more than 200 nM.)
8 | CN(C)c1nc(N[C@H]2CC[C@@H](NC(=S)NCc3ccco3)CC2)nc2c1CCCC2 [compound 1940] | 3 (Class 3 The value of percent of control at 10^−7 M was more than 60% or the value of IC50 was more than 200 nM.)
9 | CN(C)c1nc(N[C@H]2CC[C@@H](NC(=S)Nc3ccc(F)cc3)CC2)nc2c1CCCC2 [compound 1941] | 3 (Class 3 The value of percent of control at 10^−7 M was more than 60% or the value of IC50 was more than 200 nM.)
10 | CCCCCCNC(=S)N[C@H]1CC[C@@H](Nc2nc3c(c(N(C)C)n2)CCCC3)CC1 [compound 1942] | 3 (Class 3 The value of percent of control at 10^−7 M was more than 60% or the value of IC50 was more than 200 nM.)
11 | CCC[C@H]1CC[C@H](c2ccc(NC(=S)N[C@H]3CC[C@@H](Nc4nc5c(c(N(C)C)n4)CCCC5)CC3)cc2)CC1 [compound 1943] | 3 (Class 3 The value of percent of control at 10^−7 M was more than 60% or the value of IC50 was more than 200 nM.)
12 | CC(C)CNC(=S)N[C@H]1CC[C@@H](Nc2nc3c(c(N(C)C)n2)CCCC3)CC1 [compound 1944] | 3 (Class 3 The value of percent of control at 10^−7 M was more than 60% or the value of IC50 was more than 200 nM.)
13 | COc1ccc(-c2ccccc2)cc1NC(=S)N[C@H]1CC[C@@H](Nc2nc3c(c(N(C)C)n2)CCCC3)CC1 [compound 1945] | 3 (Class 3 The value of percent of control at 10^−7 M was more than 60% or the value of IC50 was more than 200 nM.)
14 | CN(C)c1nc(N[C@H]2CC[C@@H](NC(=S)NCc3ccc4c(c3)OCO4)CC2)nc2c1CCCC2 [compound 1946] | 3 (Class 3 The value of percent of control at 10^−7 M was more than 60% or the value of IC50 was more than 200 nM.)
15 | Cc1cccc(NC(=S)N[C@H]2CC[C@@H](Nc3nc4c(c(N(C)C)n3)CCCC4)CC2)c1 [compound 1947] | 3 (Class 3 The value of percent of control at 10^−7 M was more than 60% or the value of IC50 was more than 200 nM.)
16 | CSc1ccc(NC(=S)N[C@H]2CC[C@@H](Nc3nc4c(c(N(C)C)n3)CCCC4)CC2)cc1 [compound 1948] | 3 (Class 3 The value of percent of control at 10^−7 M was more than 60% or the value of IC50 was more than 200 nM.)
17 | COc1ccc(NC(=S)N[C@H]2CC[C@@H](Nc3nc4c(c(N(C)C)n3)CCCC4)CC2)cc1 [compound 1949] | 3 (Class 3 The value of percent of control at 10^−7 M was more than 60% or the value of IC50 was more than 200 nM.)
18 | C=C(C)CNC(=S)N[C@H]1CC[C@@H](Nc2nc3c(c(N(C)C)n2)CCCC3)CC1 [compound 1950] | 3 (Class 3 The value of percent of control at 10^−7 M was more than 60% or the value of IC50 was more than 200 nM.)
19 | CNC(=S)N[C@H]1CC[C@@H](Nc2nc3c(c(N(C)C)n2)CCCC3)CC1 [compound 1951] | 3 (Class 3 The value of percent of control at 10^−7 M was more than 60% or the value of IC50 was more than 200 nM.)
20 | CN(C)c1nc(N[C@H]2CC[C@@H](NC(=S)Nc3cccc([N+](=O)[O-])c3)CC2)nc2c1CCCC2 [compound 1952] | 3 (Class 3 The value of percent of control at 10^−7 M was more than 60% or the value of IC50 was more than 200 nM.)
21 | CN(C)c1nc(N[C@H]2CC[C@@H](NC(=S)Nc3ccc([N+](=O)[O-])cc3)CC2)nc2c1CCCC2 [compound 1953] | 3 (Class 3 The value of percent of control at 10^−7 M was more than 60% or the value of IC50 was more than 200 nM.)
22 | CN(C)c1nc(N[C@H]2CC[C@@H](NC(=S)NC(C)(C)CC(C)(C)C)CC2)nc2c1CCCC2 [compound 1954] | 3 (Class 3 The value of percent of control at 10^−7 M was more than 60% or the value of IC50 was more than 200 nM.)

Row | Compound | class
23 | CN(C)c1nc(N[C@H]2CC[C@@H](NC(=S)Nc3ccccc3)CC2)nc2c1CCCC2 [compound 1955] | 3 (Class 3 The value of percent of control at 10^−7 M was more than 60% or the value of IC50 was more than 200 nM.)
24 | CCCNC(=S)N[C@H]1CC[C@@H](Nc2nc3c(c(N(C)C)n2)CCCC3)CC1 [compound 1956] | 3 (Class 3 The value of percent of control at 10^−7 M was more than 60% or the value of IC50 was more than 200 nM.)
25 | CN(C)c1nc(N[C@H]2CC[C@@H](NC(=S)Nc3cccc(C(F)(F)F)c3)CC2)nc2c1CCCC2 [compound 1957] | 3 (Class 3 The value of percent of control at 10^−7 M was more than 60% or the value of IC50 was more than 200 nM.)
26 | Cc1ccc(NC(=S)N[C@H]2CC[C@@H](Nc3nc4c(c(N(C)C)n3)CCCC4)CC2)cc1 [compound 1959] | 3 (Class 3 The value of percent of control at 10^−7 M was more than 60% or the value of IC50 was more than 200 nM.)
27 | Cc1ccccc1NC(=S)N[C@H]1CC[C@@H](Nc2nc3c(c(N(C)C)n2)CCCC3)CC1 [compound 1960] | 3 (Class 3 The value of percent of control at 10^−7 M was more than 60% or the value of IC50 was more than 200 nM.)
28 | CN(C)c1nc(N[C@H]2CC[C@@H](NC(=S)NC(C)(C)C)CC2)nc2c1CCCC2 [compound 1961] | 3 (Class 3 The value of percent of control at 10^−7 M was more than 60% or the value of IC50 was more than 200 nM.)
29 | CN(C)c1nc(N[C@H]2CC[C@@H](NC(=S)Nc3ccccc3Br)CC2)nc2c1CCCC2 [compound 1963] | 3 (Class 3 The value of percent of control at 10^−7 M was more than 60% or the value of IC50 was more than 200 nM.)
30 | CN(C)c1nc(N[C@H]2CC[C@@H](NC(=S)Nc3ccccc3Cl)CC2)nc2c1CCCC2 [compound 1964] | 3 (Class 3 The value of percent of control at 10^−7 M was more than 60% or the value of IC50 was more than 200 nM.)
31 | CN(C)c1nc(N[C@H]2CC[C@@H](NC(=S)NCCc3ccccc3)CC2)nc2c1CCCC2 [compound 1965] | 3 (Class 3 The value of percent of control at 10^−7 M was more than 60% or the value of IC50 was more than 200 nM.)
32 | CCc1ccc(NC(=S)N[C@H]2CC[C@@H](Nc3nc4c(c(N(C)C)n3)CCCC4)CC2)cc1 [compound 1966] | 3 (Class 3 The value of percent of control at 10^−7 M was more than 60% or the value of IC50 was more than 200 nM.)
33 | CSc1ccccc1NC(=S)N[C@H]1CC[C@@H](Nc2nc3c(c(N(C)C)n2)CCCC3)CC1 [compound 1967] | 3 (Class 3 The value of percent of control at 10^−7 M was more than 60% or the value of IC50 was more than 200 nM.)
34 | CN(C)c1nc(N[C@H]2CC[C@@H](NC(=S)Nc3ccccc3OC(F)(F)F)CC2)nc2c1CCCC2 [compound 1968] | 3 (Class 3 The value of percent of control at 10^−7 M was more than 60% or the value of IC50 was more than 200 nM.)
35 | CN(C)c1nc(N[C@H]2CC[C@@H](NC(=S)Nc3ccccc3C(F)(F)F)CC2)nc2c1CCCC2 [compound 1969] | 3 (Class 3 The value of percent of control at 10^−7 M was more than 60% or the value of IC50 was more than 200 nM.)
36 | CN(C)c1nc(N[C@H]2CC[C@@H](NC(=S)Nc3ccc(F)c(F)c3F)CC2)nc2c1CCCC2 [compound 1970] | 3 (Class 3 The value of percent of control at 10^−7 M was more than 60% or the value of IC50 was more than 200 nM.)
37 | CN(C)c1nc(N[C@H]2CC[C@@H](NC(=S)Nc3cccc(Cl)c3Cl)CC2)nc2c1CCCC2 [compound 1971] | 3 (Class 3 The value of percent of control at 10^−7 M was more than 60% or the value of IC50 was more than 200 nM.)
38 | CN(C)c1nc(N[C@H]2CC[C@@H](NC(=S)Nc3ccc(F)cc3F)CC2)nc2c1CCCC2 [compound 1972] | 3 (Class 3 The value of percent of control at 10^−7 M was more than 60% or the value of IC50 was more than 200 nM.)
39 | COc1ccc(OC)c(NC(=S)N[C@H]2CC[C@@H](Nc3nc4c(c(N(C)C)n3)CCCC4)CC2)c1 [compound 1973] | 3 (Class 3 The value of percent of control at 10^−7 M was more than 60% or the value of IC50 was more than 200 nM.)
40 | CN(C)c1nc(N[C@H]2CC[C@@H](NC(=S)Nc3c(F)cccc3F)CC2)nc2c1CCCC2 [compound 1974] | 3 (Class 3 The value of percent of control at 10^−7 M was more than 60% or the value of IC50 was more than 200 nM.)
41 | CN(C)c1nc(N[C@H]2CC[C@@H](NC(=S)Nc3ccc([N+](=O)[O-])cc3Cl)CC2)nc2c1CCCC2 [compound 1975] | 3 (Class 3 The value of percent of control at 10^−7 M was more than 60% or the value of IC50 was more than 200 nM.)
42 | CN(C)c1nc(N[C@H]2CC[C@@H](NC(=S)Nc3ccccc3OC(F)F)CC2)nc2c1CCCC2 [compound 1976] | 3 (Class 3 The value of percent of control at 10^−7 M was more than 60% or the value of IC50 was more than 200 nM.)
43 | CN(C)c1nc(N[C@H]2CC[C@@H](NC(=S)Nc3cc(C(F)(F)F)ccc3F)CC2)nc2c1CCCC2 [compound 1977] | 3 (Class 3 The value of percent of control at 10^−7 M was more than 60% or the value of IC50 was more than 200 nM.)
